Experimental data taken from patent US20150225404A1, “PYRIDINE DERIVATIVE AND MEDICINE” (NIPPON SHINYAKU CO., LTD., priority 2012, published 2015).
Counter-ions that a name gives are not always drawn.

Legend:
male Slc:ICR mice [1] = assay: Action against formalin-induced pain behavior in mice; format: in vivo; conditions: Mus musculus, iv, 0.1 h, 6 minutes observation, read-out: Percent inhibition of pain-related behavior time (%); for inhibition in vivo at 1 mg/kg: test substance 1 mg/kg intravenously; for inhibition in vivo at 3 mg/kg: test substance 3 mg/kg intravenously
Description: 4 to 6-week-old male Slc:ICR mice (available from Japan SLC, Inc.) were used. A medium or a test substance (1 mg/kg or 3 mg/kg) was intravenously administered to each mouse, and immediately thereafter, 20 μL of 1% or 5% formalin was subcutaneously administered to a right hind paw of the mouse. Thereafter, the mice were quickly put into an observation cage and measured for the total time (sec) of pain-related behavior (licking or biting behavior against the right hindlimb) during 6 minutes, and an average value of the pain-related behavior time of each group was calculated.
The intensity of an analgesic action of the test substance was evaluated in terms of percent inhibition (%) of pain-related behavior time which is calculated as {(A−B)/A×100}, wherein A is an average value of the pain-related behavior time of a medium-administered group, and B is an average value of the pain-related behavior time of a test substance-administered group.

male Slc:ICR mice [2] = assay: Action against pain-related behavior and micturition cycle in mice with cyclophosphamide (CP)-induced acute cystitis; format: in vivo; conditions: Mus musculus, iv, 0.25 h, CP 300 mg/kg i.p., 15 minutes observation; for inhibition in vivo at 3 mg/kg: test substance 3 mg/kg intravenously 3 hours after CP; for inhibition in vivo at 1 mg/kg: test substance 1 mg/kg intravenously 3 hours after CP
Description: An action of a test substance against visceral pain and frequent urination associated with cystitis, which was induced by intraperitoneal administration (20 mL/kg) of CP (300 mg/kg) to 4 to 5-week-old male Slc:ICR mice (available from Japan SLC, Inc.), was investigated. This experiment was performed according to a method described in European Journal of Pharmacology, 676 (2012), pp. 75-80.
Three hours after the administration of CP, a test substance (1 mg/kg or 3 mg/kg) was intravenously administered, and observation by visual inspection and video recording were performed for 15 minutes immediately thereafter. In the observation by visual inspection, four pain-related behaviors (eye opening, rounded back, leg dragging, and behavior during urination) were scored, each rated on a scale of 0-10, according to the following criteria.
Eye opening (normal: 0 point, sometimes closed or half-open eyes: 5 points, completely closed: 10 points)
Rounded back (normal: 0 point, sometimes crouched: 5 points, crouched at almost all times: 10 points)
Leg dragging (normal: 0 point, leg dragging: 10 points)
Behavior during urination (normal: 0 point, shaking hip in micturition: 10 points)
In addition, the video was played back, and the frequency of licking behavior around the abdomen as a pain-related behavior was scored, rated on a scale of 0-10, according to the following criteria.
Licking behavior around the abdomen (0 to 3 times: 0 point, 4 times to 10 times: 5 points, 11 times or more: 10 points)
Furthermore, the video was played back, and the frequency of urination (urination marks) on a filter paper was counted and taken as an index for micturition cycle.
An average value of the pain-related behavior score of each group (total score of the five items: 50 points at maximum) and an average value of the frequency of urination (urination marks) on the filter paper were determined.
The strength of an analgesic action of the test substance against the CP-induced visceral pain was evaluated in terms of percent inhibition (%) of pain-related behavior score which is calculated as {(A−B)/A×100}, wherein A is an average value of the pain-related behavior score of a medium-administered group, and B is an average value of the pain-related behavior score of a test substance-administered group.
In addition, the strength of a frequent urination inhibitory action of the test substance against the CP-induced frequent urination was evaluated in terms of percent inhibition (%) of the frequency of urination which is calculated as {(C−D)/C×100}, wherein C is an average value of the frequency of urination of a medium-administered group, and D is an average value of the frequency of urination of a test substance-administered group.

human mGluR5 = target: T1, human mGluR5 (Homo sapiens, UniProt P41594); assay: Experiment for receptor function of mGluR5 (Ca2+-dependent fluorescence, FLIPR, CHO-K1 cells stably expressing human mGluR5); format: cell-based; conditions: L-glutamic acid 10 μM, Fluo-4 fluorescence
T1 construct: expressed in transfected cells
T1 sequence (P41594 21-1212): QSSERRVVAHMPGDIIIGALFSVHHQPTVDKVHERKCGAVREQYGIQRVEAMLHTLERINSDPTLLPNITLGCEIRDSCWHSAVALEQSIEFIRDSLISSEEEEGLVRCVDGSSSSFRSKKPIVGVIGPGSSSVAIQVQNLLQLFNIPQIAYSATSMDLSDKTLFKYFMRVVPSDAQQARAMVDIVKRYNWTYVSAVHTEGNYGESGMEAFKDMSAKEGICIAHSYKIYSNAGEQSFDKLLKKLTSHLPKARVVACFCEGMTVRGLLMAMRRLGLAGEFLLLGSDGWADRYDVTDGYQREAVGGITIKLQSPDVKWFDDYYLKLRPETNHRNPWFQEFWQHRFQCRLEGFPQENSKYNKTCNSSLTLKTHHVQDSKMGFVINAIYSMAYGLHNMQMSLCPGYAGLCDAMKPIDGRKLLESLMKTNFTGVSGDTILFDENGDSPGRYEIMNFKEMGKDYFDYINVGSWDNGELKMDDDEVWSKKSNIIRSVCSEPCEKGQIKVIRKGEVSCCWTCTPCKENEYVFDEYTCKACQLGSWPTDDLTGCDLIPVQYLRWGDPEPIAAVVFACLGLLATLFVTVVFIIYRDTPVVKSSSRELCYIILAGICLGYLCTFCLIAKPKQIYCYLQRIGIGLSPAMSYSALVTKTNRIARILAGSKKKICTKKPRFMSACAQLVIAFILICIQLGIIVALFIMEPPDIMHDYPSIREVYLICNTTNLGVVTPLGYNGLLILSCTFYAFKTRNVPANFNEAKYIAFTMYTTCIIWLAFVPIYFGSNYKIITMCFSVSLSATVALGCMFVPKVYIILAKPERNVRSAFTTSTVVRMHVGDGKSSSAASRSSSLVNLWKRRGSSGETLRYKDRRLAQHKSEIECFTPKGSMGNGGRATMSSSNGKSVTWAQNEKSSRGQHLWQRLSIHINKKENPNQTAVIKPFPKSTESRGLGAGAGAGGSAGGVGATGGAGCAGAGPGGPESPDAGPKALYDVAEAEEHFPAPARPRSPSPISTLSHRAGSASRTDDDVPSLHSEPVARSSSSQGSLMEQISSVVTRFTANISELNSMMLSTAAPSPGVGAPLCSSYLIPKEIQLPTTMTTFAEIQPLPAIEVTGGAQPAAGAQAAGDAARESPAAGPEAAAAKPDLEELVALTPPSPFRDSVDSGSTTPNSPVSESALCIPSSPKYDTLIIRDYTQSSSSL
In short: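 Fluo-4-loaded CHO-K1 cells pre-incubated 2 min with test substance, then stimulated with L-glutamic acid (final 10 μM) in HBSS, pH 7.4. FLIPR Ca2+ fluorescence normalized to glutamate alone (100%) and glutamate with 10 μM MPEP (0%); IC50 estimated by logistic fit.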

[3] = read-out: Percent inhibition of pain-related behavior score (%)
[4] = read-out: Percent inhibition of the frequency of urination (%)

Row | IC50 (human mGluR5) | Structure (SMILES) | inhibition in vivo at 1 mg/kg (male Slc:ICR mice [1]; 1% formalin) | inhibition in vivo at 1 mg/kg (male Slc:ICR mice [1]; 5% formalin) | further results
1 |  | c1ccc(COc2cc(-c3cncnc3)c3c(n2)CCC3)nc1 [Example 12, 2-(Pyridin-2-ylmethoxy)-4-(pyrimidin-5-yl)-6,7-dihydro-5H-cyclopenta[b]pyridine hydrochloride] | 66.8% |  | 
2 |  | Nc1ncc(-c2cc(OCc3cccc(F)n3)nc3c2CCCC3)cn1 [Example 283, 5-{2-[(6-Fluoropyridin-2-yl)methoxy]-5,6,7,8-tetrahydroquinolin-4-yl}pyrimidin-2-amine hydrochloride] |  | 38.8% | 
3 |  | OCc1cncc(-c2cc(OCc3ccc(F)cn3)nc3c2CCCC3)n1 [Example 216, (6-{2-[(5-Fluoropyridin-2-yl)methoxy]-5,6,7,8-tetrahydroquinolin-4-yl}pyrazin-2-yl)methanol] |  | 41.2% | inhibition in vivo at 3 mg/kg (male Slc:ICR mice [2]; [3]): 28.2%; inhibition in vivo at 3 mg/kg (male Slc:ICR mice [2]; [4]): 30.1%
4 | 63.5 nM | Fc1ccc(COc2cc(-c3cncnc3)c3c(n2)CCC3)cc1 [Example 257, 2-[(4-Fluorobenzyl)oxy]-4-(pyrimidin-5-yl)-6,7-dihydro-5H-cyclopenta[b]pyridine] |  | 51.1% | 
5 | 10.9 nM | c1ccc(COc2cc(-c3cncnc3)c3c(n2)CCCCC3)nc1 [Example 233, 2-(Pyridin-2-ylmethoxy)-4-(pyrimidin-5-yl)-6,7,8,9-tetrahydro-5H-cyclohepta[b]pyridine hydrochloride] | 59.5% |  | 
6 | 37.9 nM | c1ncc(-c2cc(OCc3ncco3)nc3c2CCCC3)cn1 [Example 165, 2-(1,3-Oxazol-2-ylmethoxy)-4-(pyrimidin-5-yl)-5,6,7,8-tetrahydroquinoline] | 52.3% |  | 
7 | 12 nM | N#Cc1ncccc1-c1cc(OCc2ccccn2)nc2c1CCC2 [Example 3, 3-[2-(Pyridin-2-ylmethoxy)-6,7-dihydro-5H-cyclopenta[b]pyridin-4-yl]pyridine-2-carbonitrile] | 25.1% |  | 
8 |  | Fc1cnc(COc2cc(-c3cncnc3)c3c(n2)CCCC3)c(F)c1 [Example 277, 2-[(3,5-Difluoropyridin-2-yl)methoxy]-4-(pyrimidin-5-yl)-5,6,7,8-tetrahydroquinoline] |  | 60.9% | inhibition in vivo at 3 mg/kg (male Slc:ICR mice [2]; [3]): 40.4%; inhibition in vivo at 3 mg/kg (male Slc:ICR mice [2]; [4]): 24.8%
9 | 304 nM | [O-][n+]1cncc(-c2cc(OCc3ccccn3)nc3c2CCCC3)c1 [Example 231, 4-(1-Oxidopyrimidin-5-yl)-2-(pyridin-2-ylmethoxy)-5,6,7,8-tetrahydroquinoline] |  | 66.1% | 
10 |  | OCc1cncc(-c2cc(OCc3ccccn3)nc3c2CCC3)n1 [Example 268, {6-[2-(Pyridin-2-ylmethoxy)-6,7-dihydro-5H-cyclopenta[b]pyridin-4-yl]pyrazin-2-yl}methanol hydrochloride] |  | 53.9% | 
11 | 52.1 nM | OCc1ncc(-c2cc(OCc3ccccn3)nc3c2CCCC3)s1 [Example 226, {5-[2-(Pyridin-2-ylmethoxy)-5,6,7,8-tetrahydroquinolin-4-yl]-1,3-thiazol-2-yl}methanol hydrochloride] | 26.8% |  | 
12 | 39 nM | N#Cc1cccc(COc2cc(-c3cncnc3)c3c(n2)CCC3)c1 [Example 23, 3-({[4-(Pyrimidin-5-yl)-6,7-dihydro-5H-cyclopenta[b]pyridin-2-yl]oxy}methyl)benzonitrile] |  | 47.9% | 
13 | 5.26 nM | Fc1ncccc1-c1cc(OCc2ccccn2)nc2c1CCC2 [Example 2, 4-(2-Fluoropyridin-3-yl)-2-(pyridin-2-ylmethoxy)-6,7-dihydro-5H-cyclopenta[b]pyridine hydrochloride] | 47% |  | 
14 | 23 nM | CC1CCc2c(-c3cncnc3)cc(OCc3ccccn3)nc21 (stereo not shown) [Example 238, 7-Methyl-2-(pyridin-2-ylmethoxy)-4-(pyrimidin-5-yl)-6,7-dihydro-5H-cyclopenta[b]pyridine] |  | 77.9% | 
15 | 152 nM | c1cnc(COc2cc(-c3cccnc3)c3c(n2)CCCC3)nc1 [Example 90, 4-(Pyridin-3-yl)-2-(pyrimidin-2-ylmethoxy)-5,6,7,8-tetrahydroquinoline] |  | 54.3% | 
16 |  | N#Cc1ccc(-c2cc(OCc3ccc(F)cn3)nc3c2CCC3)cn1 [Example 9, 5-{2-[(5-Fluoropyridin-2-yl)methoxy]-6,7-dihydro-5H-cyclopenta[b]pyridin-4-yl}pyridine-2-carbonitrile] |  | 39.1% | inhibition in vivo at 1 mg/kg (male Slc:ICR mice [2]; [3]): 23.9%; inhibition in vivo at 1 mg/kg (male Slc:ICR mice [2]; [4]): 36.3%
17 | 153 nM | c1ccc(COc2cc(-c3cccnc3)c3c(n2)CCCC3)nc1 [Example 82, 4-(Pyridin-3-yl)-2-(pyridin-2-ylmethoxy)-5,6,7,8-tetrahydroquinoline] |  |  | inhibition in vivo at 3 mg/kg (male Slc:ICR mice [1]; 1% formalin): 59.8%
18 | 27.9 nM | c1ncc(-c2cc(OCc3nccs3)nc3c2CCCC3)cn1 [Example 164, 4-(Pyrimidin-5-yl)-2-(1,3-thiazol-2-ylmethoxy)-5,6,7,8-tetrahydroquinoline] | 42.2% |  | 
19 |  | c1cnc(COc2cc(-c3cncnc3)c3c(n2)CCCC3)cn1 [Example 163, 2-(Pyrazin-2-ylmethoxy)-4-(pyrimidin-5-yl)-5,6,7,8-tetrahydroquinoline] |  |  | inhibition in vivo at 3 mg/kg (male Slc:ICR mice [1]; 5% formalin): 37.2%
20 | 36.2 nM | COCc1ncc(-c2cc(OCc3ccccn3)nc3c2CCCC3)s1 [Example 227, 4-[2-(Methoxymethyl)-1,3-thiazol-5-yl]-2-(pyridin-2-ylmethoxy)-5,6,7,8-tetrahydroquinoline] | 25.6% |  | 
21 |  | Fc1cccc(COc2cc(-c3cncnc3)c3c(n2)CCC3)c1 [Example 15, 2-[(3-Fluorobenzyl)oxy]-4-(pyrimidin-5-yl)-6,7-dihydro-5H-cyclopenta[b]pyridine] |  | 64% | 
22 | 42 nM | N#Cc1ccc(-c2cc(OCc3ncc(F)cc3F)nc3c2CCC3)cn1 [Example 246, 5-{2-[(3,5-Difluoropyridin-2-yl)methoxy]-6,7-dihydro-5H-cyclopenta[b]pyridin-4-yl}pyridine-2-carbonitrile] |  | 22.8% | 
23 | 117 nM | Fc1cccnc1COc1cc(-c2cccnn2)c2c(n1)CCC2 [Example 272, 2-[(3-Fluoropyridin-2-yl)methoxy]-4-(pyridazin-3-yl)-6,7-dihydro-5H-cyclopenta[b]pyridine] |  | 40.5% | 
24 | 79 nM | Cc1ncc(-c2cc(OCc3ccc(F)cc3)nc3c2CCC3)cn1 [Example 260, 2-[(4-Fluorobenzyl)oxy]-4-(2-methylpyrimidin-5-yl)-6,7-dihydro-5H-cyclopenta[b]pyridine] |  | 42.9% | 
